Entries after “also recorded” stand apart in the source; their conditions may differ. Counter-ions that a name gives are not always drawn. Like-named read-outs stand apart in the source and are kept apart here.
How the values were obtained:
[1] = Pedestal test: tranquilized mice stay on the pedestal for more than 1 minute; assay type: in vivo; details: Mus musculus, ip
Method: Pedestal Test: The untreated mouse leaves the pedestal in less than a minute to climb back to the floor of the standard mouse box. Tranquilized mice will stay on the pedestal for more than 1 minute. The ED50 (intraperitoneal administration) was 0.8 mg./kg.

[2] = Dish test: mice remaining in the dish for more than 3 minutes (tranquilization); assay type: in vivo; details: Mus musculus, ip
Method: Dish test: Mice in Petri dishes (10 cm. diameter, 5 cm. high, partially embedded in wood shavings), climb out in a very short time, when not treated. Mice remaining in the dish for more than 3 minutes indicates tranquilization.

yohimbine hydrochloride = assay: in vivo; details: for YO (Yohimbine test): TABLE V; for ED50: Mus musculus, 2 h, read-out: ED50, yohimbine potentiation (causes 50% of the mice to die)
Method: (§1) Ten male CF mice, 18-22 g., were injected with the anti-depressant and 30 minutes later with 30 […] hydrochloride (YCl) in saline solution. After two hours, the LD50 were determined.

LD50 values in mice = details: mouse, in vivo
[3] = Chimney test: ability of mice to back up and out of a vertical glass cylinder within 30 seconds; assay type: in vivo; details: Mus musculus, ip
Source text: The test determines the ability of mice to back up and out of a vertical glass cylinder within 30 seconds. At the effective dosage, 50% of the mice failed doing it.

oxotremorine [4] = assay: animal or person; assay type: in vivo, mice (male, Strain CF=Carworth Farms); details: for Oxo (Oxotremorine test): TABLE V; for ED50: Mus musculus, ip, 0.5 h, read-out: ED50, oxotremorine hypothermia antagonism (temperature at least 4° C. higher than control mice)
Method: Hypothermic tests with oxotremorine: [1-(4-pyrrolidino-2-butynyl)-2-pyrrolidinone].
The present compounds were tested as follows. […] The lowering of the body temperature was measured rectally with an electronic thermometer, before and 30 minutes after drug administration. After the drug administration the mice were kept at 19° C. in cages. A 4° difference between the control mice (oxotremorine alone) and the treated mice (oxotremorine and test compound) was used to indicate the antagonistic action of the test compound.

[5] = tested on: apomorphine hydrochloride; details: TABLE V
nicotine salicylate = assay: animal or person; assay type: in vivo, mice; details: for ED50: Mus musculus, ip
Method: Nicotine antagonism test: Mice in a group of 6 are injected with the test compound, 8-chloro-1-[(dimethylamino)methyl]-6-phenyl-4H-s-triazolo[4,3-a][1,4]benzodiazepine. Thirty minutes later the mice, including control (untreated) mice, are injected with nicotine salicylate (2 mg./kg.). The control mice show overstimulation, i.e., (1) running convulsions (2) tonic extensor fits; followed by (3) death.

[6] = tested on: apomorphine hydrochloride; assay: animal or person; details: Mus musculus, ip, 0.5 h, read-out: ED50, potentiation of apomorphine gnawing
strychnine sulfate = assay: animal or person; assay type: in vivo, mice
Method: The test consists in orally administering into groups of 6 mice the test compound, and 30 minutes later 3 mg./kg. strychnine sulfate intraperitoneally. The survivors after 4 hours reflect the activity of the compound as a muscle relaxant and antispasmodic.

oxotremorine [7] = details: cited from earlier work; for effect on oxotremorine-induced temperature decrease / hypothermic response / hypothermic response: mice, background statement
in vivo = details: mouse, in vivo, ip
Method: as §1

[8] = mice, route not given, TABLE IV

In the case of `CN(C)Cc1nnc2n1-c1ccccc1C(c1ccccc1Cl)=NC2` [1-[(dimethylamino)methyl]-6-(o-chlorophenyl)-4H-s-triazolo-[4,3-a][1,4]benzodiazepine], the ED50 ([1]; read-out: ED50 P) is reported as 22 mg/kg, the ED50 ([2]; read-out: ED50 D) is reported as 0.8 mg/kg and the “YO (Yohimbine test)” value (yohimbine hydrochloride) is reported as > 30. For the same compound, the LD50 (LD50 values in mice; TABLE V) was > 100 mg/kg, the ED50 ([3]; read-out: ED50 Ch) was 0.35 mg/kg and the “Oxo (Oxotremorine test)” value (oxotremorine [4]) was > 30. The “Ap (Apomorphine test)” value [5] was > 30 and the ED50 (nicotine salicylate; read-out: ED50 Ni) was 0.15 mg/kg.
In the case of `NCc1nnc2n1-c1ccc(Cl)cc1C(c1ccccc1)=NC2` [8-Chloro-1-(aminomethyl)-6-phenyl-4H-s-triazolo[4,3-a][1,4]benzodiazepine], the “YO (Yohimbine test)” value (yohimbine hydrochloride) is reported as 35.4, the LD50 (LD50 values in mice; TABLE V) is reported as > 100 mg/kg and the “Oxo (Oxotremorine test)” value (oxotremorine [4]) is reported as 29.7. The “Ap (Apomorphine test)” value [5] was 2.6.
`CCN(CC)Cc1nnc2n1-c1ccc(Cl)cc1C(c1ccccc1Cl)=NC2` [8-Chloro-1-[(diethylamino)methyl]-6-(o-chlorophenyl)-4H-s-triazolo[4,3-a][1,4]benzodiazepine] gave an ED50 ([1]; read-out: ED50 P) of 0.4 mg/kg, an ED50 ([2]; read-out: ED50 D) of 0.11 mg/kg and an ED50 ([3]; read-out: ED50 Ch) of 0.63 mg/kg. The ED50 (nicotine salicylate; read-out: ED50 Ni) was 0.08 mg/kg.
For `CCN(CC)Cc1nnc2n1-c1ccc(Cl)cc1C(c1ccccc1)=NC2` [8-Chloro-1-[(diethylamino)methyl]-6-phenyl-4H-s-triazolo[4,3-a][1,4]benzodiazepine], the ED50 (yohimbine hydrochloride) was 42 mg/kg, the LD50 (LD50 values in mice; [8]) was > 100 mg/kg and the ED50 (oxotremorine [4]; mice, oxotremorine 1 mg. i.p., 30 minutes, second TABLE I) was 50 mg/kg. For the same compound, the ED50 [6] was 14.9 mg/kg.
With `CN(C)Cc1nnc2n1-c1ccc(Cl)cc1C(c1ccccc1Cl)=NC2` [8-Chloro-1-[(dimethylamino)methyl]-6-(o-chlorophenyl)-4H-s-triazolo[4,3-a][1,4]benzodiazepine] the ED50 ([1]; read-out: ED50 P) was 0.36 mg/kg, the ED50 ([2]; read-out: ED50 D) was 0.36 mg/kg and the “YO (Yohimbine test)” value (yohimbine hydrochloride) was > 30. The LD50 (LD50 values in mice; TABLE V) was > 100 mg/kg, the ED50 ([3]; read-out: ED50 Ch) was 0.2 mg/kg and the “Oxo (Oxotremorine test)” value (oxotremorine [4]) was > 30. For the same compound, the “Ap (Apomorphine test)” value [5] was 17.8 and the ED50 (nicotine salicylate; read-out: ED50 Ni) was 0.63 mg/kg.
Compound `CN(C)Cc1nnc2n1-c1ccc(Cl)cc1C(c1ccccc1)=NC2` [8-Chloro-1-[(dimethylamino)methyl]-6-phenyl-4H-s-triazolo[4,3-a][1,4]benzodiazepine] has an ED50 ([1]; read-out: ED50, pedestal test) of 0.8 mg/kg, an ED50 ([2]; read-out: ED50, dish test) of 0.28 mg/kg and an ED50 (yohimbine hydrochloride) of 12.5 mg/kg. For the same compound, the LD50 (LD50 values in mice; [8]) was 476 mg/kg, the ED50 ([3]; read-out: effective intraperitoneal dosage for 50% of mice (ED50), chimney test) was 2.3 mg/kg and the ED50 (oxotremorine [4]) was 5.3 mg/kg. It also gave an ED50 (nicotine salicylate; read-out: dosage protecting 50% of the animals against death (nicotine antagonism)) of 0.11 mg/kg, an ED50 (strychnine sulfate; Mus musculus, po, 4 h, read-out: effective dosage ED50, antagonism to strychnine) of 50 mg/kg and an ED50 [6] of 5.3 mg/kg.
In the case of `CN(C)CCC=C1c2ccccc2COc2ccccc21` [Doxepine, reference compound], the ED50 (yohimbine hydrochloride) is given as 17.7 mg/kg, the “effect on oxotremorine-induced temperature decrease / hypothermic response” value (oxotremorine [7]) is given as “antagonized” and the LD50 (LD50 values in mice; [8]) is given as 126 mg/kg. For the same compound, the ED50 (oxotremorine [4]) was 14.9 mg/kg and the ED50 [6] was 17.7 mg/kg.
For `CN(C)CCCN1c2ccccc2CCc2ccccc21` [Imipramine, reference compound], the ED50 (yohimbine hydrochloride) was 4.4 mg/kg, the ED50 (oxotremorine [4]) was 5.3 mg/kg and the ED50 [6] was 17.7 mg/kg.
In the case of `O=C1CCCN1CC#CCN1CCCC1` [Oxotremorine, 1-(4-pyrrolidino-2-butynyl)-2-pyrrolidinone], the “decrease of body temperature” value (oxotremorine [7]; 0.6 mg./kg. oxotremorine, mouse kept at room temperature) is given as “about 13 ° F” and the hypothermic response (oxotremorine [7]) is given as “produces hypothermic responses in mice; also recorded: very pronounced hypothermia”.
In the case of `CN1CCc2cccc3c2[C@H]1Cc1ccc(O)c(O)c1-3` [apomorphine], the hypothermic response (oxotremorine [7]) is given as “produces hypothermic responses in mice”.
For `CN1[C@@H]2CC[C@H]1C[C@@H](OC(=O)C(CO)c1ccccc1)C2` (stereo partly shown) [atropine], the “effect on oxotremorine-induced temperature decrease / hypothermic response” value (oxotremorine [7]) is given as “blocked”.
In the case of `CNCCCN1c2ccccc2CCc2ccccc21` [desipramine], the “effect on oxotremorine-induced temperature decrease / hypothermic response” value (oxotremorine [7]) is given as “antagonized”.
For `CN1CCC[C@H]1c1cccnc1` [nicotine salicylate, reference compound], the “effect of nicotine salicylate in control mice” value (nicotine salicylate; 2 mg./kg., injected) was “overstimulation”.
For `O=C1C[C@@H]2OCC=C3CN4CC[C@]56c7ccccc7N1[C@H]5[C@H]2[C@H]3C[C@H]46` [strychnine sulfate, reference compound], the “lethality of strychnine sulfate in control mice” value (strychnine sulfate; 3 mg./kg. intraperitoneally) was “routinely fatal to all the control mice”.
In the case of `COc1cc2c(cc1OC)C1CC(=O)C(CC(C)C)CN1CC2` (stereo not shown) [tetrabenazine], the hypothermic response (oxotremorine [7]) is given as “produces hypothermic responses in mice”.
For `COC(=O)[C@@H]1[C@H]2C[C@H]3c4[nH]c5ccccc5c4CCN3C[C@@H]2CC[C@@H]1O` [yohimbine hydrochloride], the “lethality of yohimbine hydrochloride alone” value (yohimbine hydrochloride; 30 mg./kg. (30 mg.), mice) was “non-lethal” and the LD50 (in vivo) was 45 mg/kg.
